Source: patent publication US12285012B2, “Compositions comprising pyridine carboxylate herbicides with acetolactate synthase (ALS) inhibitor herbicides” (Corteva Agriscience LLC, priority 2018, dated 2025)

How the values were obtained:
[1] = test system: wild mustard (SINAR, Sinapis arvensis); assay: Greenhouse postemergence herbicidal effect; assay type: in vivo
Experimental: (§1) The plants were grown for 7-36 days (d) in a greenhouse with an approximate 14-hour (h) photo-period which was maintained at about 23° C. during the day and 22° C. during the night. Nutrients and water were added on a regular basis and supplemental lighting was provided with overhead metal halide 1000-Watt lamps as necessary. The plants were employed for testing when they reached the second or third true leaf stage.
(§2) The emulsifiable concentrates also included a safener, cloquintocet-mexyl, at 120 grams active ingredient per liter (g ai/L), unless otherwise noted below.
(§3) Control plants were sprayed in the same manner with the solvent blank. All pyridine carboxylate herbicide (component a) application rates are given as “g ae/ha” and all ALS inhibitor (component b) application rates are given as “g ai/ha.”
(§4) The treated plants and control plants were placed in a greenhouse as described above and watered by sub-irrigation to prevent wash-off of the test compounds. After 20-22 d, the condition of the test plants as compared with that of the control plants was determined visually and scored on a scale of 0 to 100 percent where 0 corresponds to no injury and 100 corresponds to complete kill.

[2] = test system: Russian thistle (SASKR, Salsola kali); assay: Greenhouse postemergence herbicidal effect; assay type: in vivo
Experimental: as §1, §2, §3, §4

[3] = test system: spring rape (BRSNN, Brassica napus); assay: Greenhouse postemergence herbicidal effect; assay type: in vivo
Experimental: as §1, §2, §3, §4

[4] = test system: wild chamomile (MATCH, Matricaria chamomilla); assay: Greenhouse postemergence herbicidal effect; assay type: in vivo
Experimental: as §1, §2, §3, §4

[5] = test system: kochia (KCHSC, Kochia scoparia); assay: Greenhouse postemergence herbicidal effect; assay type: in vivo
Experimental: (§5) Seeds of the desired test plant species were planted in a 90:10% v/v (volume/volume) mixture of PRO-MIX® BX (Premier Tech Horticulture, Quakertown, PA, USA) and PROFILE® GREENS GRADE™ (Profile Products LLC, Buffalo Grove, IL, USA) planting mixture, which typically has a pH of 5.2 to 6.2 and an organic matter content of at least 50 percent, in plastic pots with a surface area of 103.2 square centimeters (cm^2). […] The plants were grown for 7-36 days (d) in a greenhouse with an approximate 14-hour (h) photo-period which was maintained at about 23° C. during the day and 22° C. during the night. Nutrients and water were added on a regular basis and supplemental lighting was provided with overhead metal halide 1000-Watt lamps as necessary. The plants were employed for testing when they reached the second or third true leaf stage.
(§6) Emulsifiable concentrates of each of each pyridine carboxylate herbicide (Compound A or Compound B) were prepared at 100 grams acid equivalent per liter (g ae/L). The emulsifiable concentrates also included a safener, cloquintocet-mexyl, at 120 grams active ingredient per liter (g ai/L), unless otherwise noted below. An aliquot of each emulsifiable concentrate was placed in a 25 mL glass vial and diluted with an aqueous mixture of 1.25% (v/v) ACTIROB® B esterified rapeseed oil (Bayer Crop Science, Research Triangle Park, NC, USA) or MSO® Concentrate with LECI-TECH® methylated soybean oil (Loveland Products, Loveland, CO, USA) to obtain concentrated stock solutions at the highest application rate for each herbicide, based upon a 12 milliliter (mL) application volume at a rate of 187 liters per hectare (L/ha). The concentrated stock solutions were further diluted with an aqueous mixture of 1.25% v/v ACTIROB® B or MSO® Concentrate with LECI-TECH® to obtain stock solutions at reduced application rates for each herbicide. Spray solutions of the herbicide combinations (Compound A or Compound B plus ALS herbicide) were prepared by adding weighed amounts or aliquots of the ALS herbicides to the stock solutions of Compound A or Compound B to form 12-mL spray solutions in two- or three-way combinations.
(§7) The spray solutions were applied to the plant material with an overhead Mandel track sprayer equipped with 8002E nozzles calibrated to deliver 187 L/ha over an application area of 0.503 square meters (m^2) at a spray height of 18 inches (43 centimeters (cm)) above the average plant canopy. Control plants were sprayed in the same manner with the solvent blank. All pyridine carboxylate herbicide (component a) application rates are given as “g ae/ha” and all ALS inhibitor (component b) application rates are given as “g ai/ha.”
as §4

[6] = test system: spring wheat (TRZAS); assay type: in vivo, Triticum aestivum
Experimental: as §1, §2, §3, §4

[7] = test system: spring barley (HORVS); assay type: in vivo, Hordeum vulgare
Experimental: as §1, §2, §3, §4

[8] = test system: wild pansy (VIOTR, Viola tricolor); assay: Greenhouse postemergence herbicidal effect; assay type: in vivo
Experimental: as §1, §2, §3, §4

[9] = test system: Canadian thistle (CIRAR, Cirsium arvense); assay: Greenhouse postemergence herbicidal effect; assay type: in vivo; settings: Cirsium arvense, post-emergence, read-out: % visual injury, Obs
Experimental: as §1, §2, §3, §4

[10] = test system: wild buckwheat (POLCO, Polygonum convolvulus); assay: Greenhouse postemergence herbicidal effect; assay type: in vivo
Experimental: as §1, §2, §3, §4

[11] = test system: pigweed (AMARE, Amaranthus retroflexus); assay: Greenhouse postemergence herbicidal effect; assay type: in vivo
Experimental: as §1, §2, §3, §4

[12] = test system: common lambsquarters (CHEAL, Chenopodium album L.); assay: Greenhouse postemergence herbicidal effect; assay type: in vivo
Experimental: as §5, §6, §7, §4

## COc1cc(OC)nc(Sc2cccc3c2C(=O)OC3C)n1 (stereo not drawn) [Pyriftalid, pyriftalid]
[1]; 30 g/ha
  % visual injury, Obs: 23%
[2]; 30 g/ha
  % visual injury, Obs: 0%
[3]; 30 g/ha
  % visual injury, Obs: 18%
[4]; 30 g/ha
  % visual injury, Obs: 0%
[5]; Bassia scoparia, post-emergence, 30 g/ha, read-out: % visual injury, Obs
  pest or weed control at 30 g/ha: 0%
[6]; 30 g/ha
  % visual injury, Obs: 0%
[7]; 30 g/ha
  % visual injury, Obs: 5%

## COCc1cnc(C2=NC(C)(C(C)C)C(=O)N2)c(C(=O)O)c1 (stereo not drawn) [Imazamox, imazamox]
[8]; 17.5 g/ha
  % visual injury, Obs: 75%
[9]; 17.5 g/ha
  pest or weed control at 17.5 g/ha: 63%

## CC(C)C1(C)N=C(c2ncccc2C(=O)O)NC1=O (stereo not drawn) [Imazapyr, imazapyr]
[8]; 140 g/ha
  % visual injury, Obs: 63%
[9]; 140 g/ha
  pest or weed control at 140 g/ha: 80%
[5]; Bassia scoparia, post-emergence, 140 g/ha, read-out: % visual injury, Obs
  pest or weed control at 140 g/ha: 54%

## CCOc1nc(F)cc2nc(S(=O)(=O)Nc3c(Cl)cccc3C(=O)O)nn12 [Cloransulam, cloransulam]
[1]; Cloransulam 17.5 g/ha
  % visual injury Obs: 97%
[2]; Cloransulam 17.5 g/ha
  % visual injury Obs: 25%
[10]; Cloransulam 17.5 g/ha
  % visual injury Obs: 80%
[3]; Cloransulam 17.5 g/ha
  % visual injury Obs: 100%
[4]; Cloransulam 17.5 g/ha
  % visual injury Obs: 40%
[11]; Cloransulam 17.5 g/ha
  % visual injury Obs: 15%
[5]; Cloransulam 17.5 g/ha
  % visual injury Obs: 0%
[12]; Cloransulam 17.5 g/ha
  % visual injury Obs: 0%
[6]; Cloransulam 17.5 g/ha
  % visual injury Obs: 0%
[7]; Cloransulam 17.5 g/ha
  % visual injury Obs: 15%

## CCOc1nc(F)cc2nc(S(=O)(=O)Nc3c(Cl)cccc3Cl)nn12 [Diclosulam, diclosulam]
[1]; Diclosulam 17.5 g/ha
  % visual injury Obs: 100%
[2]; Diclosulam 17.5 g/ha
  % visual injury Obs: 25%
[10]; Diclosulam 17.5 g/ha
  % visual injury Obs: 98%
[3]; Diclosulam 17.5 g/ha
  % visual injury Obs: 100%
[4]; Diclosulam 17.5 g/ha
  % visual injury Obs: 68%
[11]; Diclosulam 17.5 g/ha
  % visual injury Obs: 85%
[5]; Diclosulam 17.5 g/ha
  % visual injury Obs: 0%
[12]; Diclosulam 17.5 g/ha
  % visual injury Obs: 0%
